Measurements taken from patent US8846917B2, “Compounds useful as inhibitors of ATR kinase” (Vertex Pharmaceuticals Incorporated, priority 2011, dated 2014).
pKi: −log10 of the molar value.

Molecular target: full-length ATR (Homo sapiens (Human), UniProt Q13535)
Assay: ATR Inhibition Assay (radioactive-phosphate incorporation)
Type: biochemical
Settings: Ki(app); 10 μM ATP, 800 μM target peptide, 5 nM full-length ATR, 25° C.
Description: Compounds were screened for their ability to inhibit ATR kinase using a radioactive-phosphate incorporation assay. Assays were carried out in a mixture of 50 mM Tris/HCl (pH 7.5), 10 mM MgCl2 and 1 mM DTT. […] Assays were carried out at 25° C. in the presence of 5 nM full-length ATR. An assay stock buffer solution was prepared containing all of the reagents listed above, with the exception of ATP and the test compound of interest. […] The plate was pre-incubated for 10 minutes at 25° C. and the reaction initiated by addition of 15 μL [γ-33P]ATP (final concentration 10 μM). The reaction was stopped after 24 hours by the addition of 30 μL 0.1M phosphoric acid containing 2 mM ATP. A multiscreen phosphocellulose filter 96-well plate (Millipore, Cat no. MAPHN0B50) was pretreated with 100 μL 0.2M phosphoric acid prior to the addition of 45 μL of the stopped assay mixture. The plate was washed with 5×200 μL 0.2M phosphoric acid. After drying, 100 μL Optiphase ‘SuperMix’ liquid scintillation cocktail (Perkin Elmer) was added to the well prior to scintillation counting (1450 Microbeta Liquid Scintillation Counter, Wallac). After removing mean background values for all of the data points, Ki(app) data were calculated from non-linear regression analysis of the initial rate data using the Prism software package (GraphPad Prism version 3.0cx for Macintosh, GraphPad Software, San Diego Calif., USA).

Chain of full-length ATR (Q13535 whole entry): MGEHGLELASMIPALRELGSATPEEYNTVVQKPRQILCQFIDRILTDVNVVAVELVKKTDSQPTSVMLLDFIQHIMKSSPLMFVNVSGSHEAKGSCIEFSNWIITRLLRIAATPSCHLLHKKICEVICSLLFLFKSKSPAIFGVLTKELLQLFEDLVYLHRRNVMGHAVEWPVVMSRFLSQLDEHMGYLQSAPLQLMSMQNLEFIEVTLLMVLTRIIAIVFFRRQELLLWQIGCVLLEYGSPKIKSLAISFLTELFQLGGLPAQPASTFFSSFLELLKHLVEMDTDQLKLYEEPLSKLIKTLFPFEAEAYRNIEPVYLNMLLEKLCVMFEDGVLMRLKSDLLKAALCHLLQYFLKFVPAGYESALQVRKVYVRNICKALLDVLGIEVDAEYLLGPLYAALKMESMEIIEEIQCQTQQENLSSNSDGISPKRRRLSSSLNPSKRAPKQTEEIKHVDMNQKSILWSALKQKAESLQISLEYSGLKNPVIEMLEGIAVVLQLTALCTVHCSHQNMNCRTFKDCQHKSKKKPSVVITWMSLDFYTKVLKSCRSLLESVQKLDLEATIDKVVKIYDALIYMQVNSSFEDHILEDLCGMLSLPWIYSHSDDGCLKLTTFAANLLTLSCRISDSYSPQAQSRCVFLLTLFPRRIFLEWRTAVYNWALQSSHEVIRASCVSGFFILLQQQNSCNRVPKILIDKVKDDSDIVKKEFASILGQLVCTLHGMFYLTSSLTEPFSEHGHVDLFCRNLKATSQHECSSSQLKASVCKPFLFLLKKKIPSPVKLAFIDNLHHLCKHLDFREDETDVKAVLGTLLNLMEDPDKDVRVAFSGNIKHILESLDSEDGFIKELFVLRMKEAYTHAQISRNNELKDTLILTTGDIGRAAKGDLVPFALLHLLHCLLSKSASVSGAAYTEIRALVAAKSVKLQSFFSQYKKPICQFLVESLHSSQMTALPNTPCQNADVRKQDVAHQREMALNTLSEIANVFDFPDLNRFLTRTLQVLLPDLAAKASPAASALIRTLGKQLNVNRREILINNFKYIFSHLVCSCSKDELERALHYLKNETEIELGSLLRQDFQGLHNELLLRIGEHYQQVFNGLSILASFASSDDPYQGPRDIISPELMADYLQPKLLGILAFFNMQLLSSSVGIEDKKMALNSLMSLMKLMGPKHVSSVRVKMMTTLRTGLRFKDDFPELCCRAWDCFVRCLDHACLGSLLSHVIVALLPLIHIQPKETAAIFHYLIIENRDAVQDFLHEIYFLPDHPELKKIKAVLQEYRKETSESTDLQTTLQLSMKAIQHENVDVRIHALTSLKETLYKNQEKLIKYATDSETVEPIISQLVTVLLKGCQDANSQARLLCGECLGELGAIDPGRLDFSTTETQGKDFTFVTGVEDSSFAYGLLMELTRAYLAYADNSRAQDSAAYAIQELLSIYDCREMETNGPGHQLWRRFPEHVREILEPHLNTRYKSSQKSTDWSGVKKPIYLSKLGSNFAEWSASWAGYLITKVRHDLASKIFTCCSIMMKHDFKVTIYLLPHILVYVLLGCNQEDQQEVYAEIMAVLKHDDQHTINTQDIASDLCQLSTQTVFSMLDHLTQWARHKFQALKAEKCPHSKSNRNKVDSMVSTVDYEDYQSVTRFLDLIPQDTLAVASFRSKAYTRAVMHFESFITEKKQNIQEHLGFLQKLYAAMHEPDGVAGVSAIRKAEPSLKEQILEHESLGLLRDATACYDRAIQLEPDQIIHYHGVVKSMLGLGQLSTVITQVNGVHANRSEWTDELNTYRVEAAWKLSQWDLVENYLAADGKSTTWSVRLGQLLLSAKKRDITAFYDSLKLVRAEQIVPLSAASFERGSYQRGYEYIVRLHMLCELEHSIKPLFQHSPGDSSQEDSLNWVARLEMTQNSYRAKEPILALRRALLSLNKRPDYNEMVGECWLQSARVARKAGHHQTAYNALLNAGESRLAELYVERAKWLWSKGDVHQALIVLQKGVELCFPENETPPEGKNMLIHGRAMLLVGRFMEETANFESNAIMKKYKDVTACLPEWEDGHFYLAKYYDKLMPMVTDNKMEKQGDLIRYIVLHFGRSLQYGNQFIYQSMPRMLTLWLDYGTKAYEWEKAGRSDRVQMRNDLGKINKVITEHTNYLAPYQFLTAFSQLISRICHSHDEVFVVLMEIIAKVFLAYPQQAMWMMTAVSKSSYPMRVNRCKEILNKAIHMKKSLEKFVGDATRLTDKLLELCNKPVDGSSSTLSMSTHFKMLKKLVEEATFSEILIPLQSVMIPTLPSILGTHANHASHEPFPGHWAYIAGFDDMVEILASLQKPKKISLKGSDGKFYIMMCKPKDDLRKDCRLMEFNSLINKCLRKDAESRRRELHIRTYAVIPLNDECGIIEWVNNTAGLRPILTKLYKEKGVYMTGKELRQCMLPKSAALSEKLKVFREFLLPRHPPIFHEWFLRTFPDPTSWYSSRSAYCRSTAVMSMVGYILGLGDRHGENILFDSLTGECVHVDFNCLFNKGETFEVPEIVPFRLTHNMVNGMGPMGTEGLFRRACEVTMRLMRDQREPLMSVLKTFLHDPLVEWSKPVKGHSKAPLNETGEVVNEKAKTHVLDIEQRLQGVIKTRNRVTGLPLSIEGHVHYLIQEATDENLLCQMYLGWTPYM

- pKi: 8.22
Compound: CC(C)S(=O)(=O)c1ccc(-c2cnc(N)c(-c3cn(-c4ccccc4)nn3)n2)cc1 [Compound I-1, 5-(4-(isopropylsulfonyl)phenyl)-3-(1-phenyl-1H-1,2,3-triazol-4-yl)pyrazin-2-amine]
